Measurements taken from patent publication US20080146624A1, “AMIDINES AS MODULATORS OF INDOLEAMINE 2,3-DIOXYGENASE” (INCYTE CORPORATION, priority 2006, published 2008).

Legend:
[1] = tested on: LLC tumors; conditions: C57B1/6 mice, versus placebo; cited from earlier work
[2] = tested on: P815 tumor; conditions: pre-immunized immune-competent mice; cited from earlier work
[3] = target: T1, Human indoleamine 2,3-dioxygenasae (IDO) (Homo sapiens, UniProt P14902); test: Human indoleamine 2,3-dioxygenase (IDO) enzyme assay; format: biochemical; conditions: 95 nM IDO, 2 mM D-Trp, pH 6.5, room temperature, absorbance at 321 nm
T1 construct: His tag (N); made in house; host or cells: E. coli
T1 sequence (P14902 whole entry): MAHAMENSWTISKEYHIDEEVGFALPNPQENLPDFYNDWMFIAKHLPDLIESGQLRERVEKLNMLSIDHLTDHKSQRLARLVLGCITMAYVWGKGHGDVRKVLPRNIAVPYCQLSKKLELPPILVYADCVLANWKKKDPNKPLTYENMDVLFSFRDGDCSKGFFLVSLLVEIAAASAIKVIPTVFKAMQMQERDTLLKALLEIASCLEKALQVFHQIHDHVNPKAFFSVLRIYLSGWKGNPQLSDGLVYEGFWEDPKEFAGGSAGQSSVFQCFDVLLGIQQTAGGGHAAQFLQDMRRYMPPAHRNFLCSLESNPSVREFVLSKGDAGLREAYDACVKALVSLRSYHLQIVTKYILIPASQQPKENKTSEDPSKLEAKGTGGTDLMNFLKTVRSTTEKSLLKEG
Procedure: Human indoleamine 2,3-dioxygenasae (IDO) with an N-terminal His tag was expressed in E. coli and purified to homogeneity. IDO catalyzes the oxidative cleavage of the pyrrole ring of the indole nucleus of tryptophan to yield N′-formylkynurenine. The assays were performed at room temperature as described in the literature using 95 nM IDO and 2 mM D-Trp in the presence of 20 mM ascorbate, 5 μM methylene blue and 0.2 mg/mL catalase in 50 mM potassium phosphate buffer (pH 6.5). The initial reaction rates were recorded by continuously following the absorbance increase at 321 nm due to the formation of N′-formlylkynurenine. […] The symbol “+” indicates IC50<[…]. The symbol “++” indicates […]. The symbol “+++” indicates IC50>[…].

Row | SMILES | formation of tumors [1] | growth of tumors [2] | IC50 [3] [µM]
1 | Cn1cc(C[C@H](N)C(=O)O)c2ccccc21 [Example 1-MT, 1-methyl-tryptophan] | markedly delayed | inhibited | 
2 | N#Cc1cccc(NC(=NO)c2ccoc2)c1 [Example 11, N-(3-cyanophenyl)-N′-hydroxy-furan-3-carboximidamide] |  |  | > 10
3 | N#Cc1cc(NC(=NO)c2ccoc2)ccc1F [Example 12, N-(3-cyano-4-fluorophenyl)-N′-hydroxyfuran-3-carboximidamide] |  |  | > 10
